Experiments:
S6 Kinase = S6 Kinase mRNA expression by semi-quantitative qPCR in MDCK cells; assay type: cell-based, Canine; details: mRNA normalized to TATA box binding protein
Procedure: (§1) Cell Culture procedure: Commercially available Madin Darby Canine Kidney (MDCK) cells were obtained from ATCC as a stock suspension of immortalized cells. MDCK cells were cultured at 37° C. in an atmosphere of 95% air/5% CO2 and Dulbecco's Modified Eagle Medium (DMEM) media containing 10% fetal calf serum and 1% antibiotic/antimicrobial solution (DMEM-loaded). The media was changed and cells passed every 1 to 2 days using a solution containing 0.05% trypsin. For RNA extraction, cells were plated at a seeding density of 50,000 to 60,000 cells/cm^2 in 35 mm dishes. Twenty-four hours after seeding, media was changed to either control (DMEM-loaded) or test media (DMEM-loaded+1 nM melatonin). Cells were harvested 1, 3, or 5 days after exposure to control or test media. Media was changed in the remaining dishes on the days of cell harvesting. Total RNA was harvested from MDCK cell lysates using RNAlater RNA stabilization reagent and following the manufacturer's directions (Ambion, Austin, Tex.). mRNA transcripts of mTOR, S6 Kinase, and TATA box binding protein genes were analyzed by semi-quantitative qPCR on days 1, 3, and 5 of media treatment. TATA box binding protein gene transcript was used to normalize the expression of mTOR and S6 Kinase, as it is widely used as a “housekeeping” gene. The procedure in Example 1 was repeated.

mTOR = mTOR mRNA expression by semi-quantitative qPCR in MDCK cells; assay type: cell-based, Canine; details: mRNA normalized to TATA box binding protein
Procedure: as §1

[1] = Trial 1, Day 1, control media + 1 nM melatonin
[2] = Trial 1, Day 3, control media + 1 nM melatonin
[3] = Trial 1, Day 5, control media + 1 nM melatonin
[4] = Trial 2, Day 1, control media + 1 nM melatonin
[5] = Trial 2, Day 3, control media + 1 nM melatonin
[6] = Trial 2, Day 5, control media + 1 nM melatonin

For COc1ccc2[nH]cc(CCNC(C)=O)c2c1 [melatonin, 5-methoxy-N-acetyltryptamine], the “S6 Kinase Induction” value (S6 Kinase; [1]) was 1.14, the “S6 Kinase Induction” value (S6 Kinase; [2]) was 0.66 and the “S6 Kinase Induction” value (S6 Kinase; [3]) was 0.51. For the same compound, the “S6 Kinase Induction” value (S6 Kinase; [4]) was 1.05, the “S6 Kinase Induction” value (S6 Kinase; [5]) was 0.82 and the “S6 Kinase Induction” value (S6 Kinase; [6]) was 0.75. For the same compound, the “mTOR Induction” value (mTOR; [1]) was 0.93, the “mTOR Induction” value (mTOR; [2]) was 0.76 and the “mTOR Induction” value (mTOR; [3]) was 0.49. For the same compound, the “mTOR Induction” value (mTOR; [4]) was 0.98, the “mTOR Induction” value (mTOR; [5]) was 1.02 and the “mTOR Induction” value (mTOR; [6]) was 1.01.

Source: patent US20140113949A1, “METHODS FOR REDUCING NEURODEGENERATION” (NESTEC S.A., priority 2011, published 2014)
